Measured values published in patent publication US20120157422A1, “MARKER” (UCL BUSINESS PLC, priority 2009, published 2012).

Legend:
[1] = tested on: high risk women; conditions: versus placebo; cited from earlier work
[2] = tested on: women at increased risk of preterm delivery; conditions: whole PREMET study, fFN positive women, one week course; cited from earlier work
[3] = tested on: women at increased risk of preterm delivery; assay: PREMET subgroup providing saliva samples: metronidazole versus placebo; format: in vivo, human; conditions: 17 women on metronidazole vs 7 on placebo (36.4 weeks), p=0.73, no significant difference
Excerpt: A group of women at increased risk of preterm delivery participating in a study to assess the potential benefit of metronidazole in the prevention of preterm delivery (The PREMET study') provided saliva specimens from 24 weeks of gestation until 34 weeks or delivery in order to interrogate further the association between the steroid hormone profile and gestational age at delivery.
In the PREMET study 892 women with singleton pregnancies, who had at least one risk factor for preterm delivery, were recruited between 23^+0 and 24^+6 weeks over a four and a half year period.^1 Eligibility included singleton pregnancy with a history of preterm birth or preterm prelabour rupture of the membranes before 37 completed weeks of gestation, previous late miscarriage, uterine anatomical abnormality, cervical surgery prior to the index pregnancy or current cervical cerclage. Women were screened for cervico-vaginal fetal fibronectin (fFN) at 24 and 27 weeks gestation. Those who were fFN positive (≧50 ng/mL) were randomised to receive a one week course of metronidazole or placebo.
Weekly saliva samples, provided from 24 weeks of gestation until 34 weeks or delivery, were analysed for saliva E3 and progesterone by radioimmunoassay as previously described.^3 Briefly, aliquots (100 μL) of saliva were mixed with 50 μL sodium carbonate solution pH 10.5 and extracted with 10 volumes of diethyl ether. […]

In the case of CCCCCC(=O)O[C@]1(C(C)=O)CC[C@H]2[C@@H]3CCC4=CC(=O)CC[C@]4(C)[C@H]3CC[C@@]21C [17α hydroxyprogesterone caproate], the “benefit of the intervention” value [1] is given as “significant benefit”.
For Cc1ncc([N+](=O)[O-])n1CCO [metronidazole], the “preterm delivery associated with treatment” value [2] is listed as “small but significant increase” and the “gestational age at delivery” value [3] is listed as 35.6 weeks.
